# Results published in ChEMBL document CHEMBL1201862, “PubChem BioAssay data set” (2004).
# Activity calls are given as the source filed them. Rule as the data show it, for most assays here: actives have a measured EC50 and inactives only a lower limit.
# Experiments:
# [1] = molecular target: T1, RNA-binding protein pos-1 (Caenorhabditis elegans, UniProt G5EF15); test: disruptors of C. elegans POS-1 RNA interaction – biochemical, fluorescence polarization, dose response (AID 1964);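 also: purified POS-1 fused to maltose binding protein made in E. coli; potency of compounds blocking POS-1 binding to fluorescent RNA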
# T1 sequence (G5EF15 whole entry): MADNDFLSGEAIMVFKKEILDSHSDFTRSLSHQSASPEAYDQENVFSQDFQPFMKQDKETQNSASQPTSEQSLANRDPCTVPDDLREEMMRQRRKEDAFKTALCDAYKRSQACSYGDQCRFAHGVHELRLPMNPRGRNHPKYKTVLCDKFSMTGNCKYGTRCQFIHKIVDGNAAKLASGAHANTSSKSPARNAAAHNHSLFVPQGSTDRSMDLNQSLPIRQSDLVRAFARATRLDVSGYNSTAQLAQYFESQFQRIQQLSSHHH
# [2] = fluconazole-exposed Candida albicans growth modulators – fluorescence, retest, confirmation (AID 2467); assay type: functional, cell-based
# [3] = molecular target: Polyadenylate-binding protein 1 (Homo sapiens, UniProt P11940); test: MLLE domain peptide-binding blockers, IC50 – biochemical, fluorescence polarization, FITC-PAM2 peptide, dose response (AID 602259); assay type: functional; details: read-out: IC50_Mean
# Sequence of Polyadenylate-binding protein 1 (P11940 whole entry, the tested form may be a part): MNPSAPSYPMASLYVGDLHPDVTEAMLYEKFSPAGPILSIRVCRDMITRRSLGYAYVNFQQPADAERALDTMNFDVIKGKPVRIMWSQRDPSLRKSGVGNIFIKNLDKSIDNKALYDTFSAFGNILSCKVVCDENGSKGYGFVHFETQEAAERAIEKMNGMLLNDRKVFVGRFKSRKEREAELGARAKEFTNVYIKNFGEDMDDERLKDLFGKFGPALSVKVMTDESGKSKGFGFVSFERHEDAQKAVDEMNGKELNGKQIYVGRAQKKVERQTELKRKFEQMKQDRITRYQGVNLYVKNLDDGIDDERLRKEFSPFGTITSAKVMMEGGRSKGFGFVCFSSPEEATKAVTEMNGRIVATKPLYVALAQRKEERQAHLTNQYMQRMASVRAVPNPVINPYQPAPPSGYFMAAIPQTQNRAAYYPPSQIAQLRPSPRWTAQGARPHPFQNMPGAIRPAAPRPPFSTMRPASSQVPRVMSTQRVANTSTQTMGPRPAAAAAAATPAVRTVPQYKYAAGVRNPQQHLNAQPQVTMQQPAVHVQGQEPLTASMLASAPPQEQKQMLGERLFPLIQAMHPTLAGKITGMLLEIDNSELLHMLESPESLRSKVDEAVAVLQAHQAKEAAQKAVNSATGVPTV
compound,measurement,setting,value
CN1CCc2cc3c(c4c2[C@H]1[C@H](O)c1ccccc1-4)OCO3,EC50,[1],11.9 µM (active)
same,EC50,[2],2.74 µM (active)
same,IC50,[3],25.8 µM (inactive)
